For orientation: IC50 means the concentration that inhibits the measured activity by half. A high value points to weaker potency.

Several values for one entry are separate records, joined by “and”; a condition that tells them apart may be missing. Equal values may be shown once.

The source of these data is publication PMC12735921, “Evaluation of Antiproliferative Activity and Molecular Modeling Studies of Some Novel Benzimidazolone-Bridged Hybrid Compounds” (Pharmaceuticals, 2025).

Experiment [1] has as its system MCF-7 cells. The experiment is described as follows: MTT cell viability assay, MCF-7. The format is cell-based, human. In outline: (§1)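 Cells exposed to compounds at 0.5–200 µM for 48 h in DMEM with 10% FBS at 37 °C, 5% CO2; formazan dissolved in DMSO and read at 570 nm. Cytotoxicity relative to untreated control; IC50 from four-parameter logistic fit, mean of three independent measurements, triplicate samples.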

Experiment [2] concerns A549 cells. The experiment is described as follows: Intracellular GSH/GSSG ratio, A549. Type of experiment: cell-based, human. Conditions: A549, IC50 concentration of compound, 48 h; H2O2 positive control; mean ± SD, n = 3. As for the experimental part:
(§2) Intracellular reduced (GSH) and oxidized (GSSG) glutathione levels were measured using the GSH/GSSG Ratio Detection Assay Kit (Cayman Chemical, Ann Arbor, MI, USA, Cat. No: 703002) according to the manufacturer’s protocol. […] After treatment, cells were washed with cold PBS and lysed with MES buffer provided in the kit.
(§3) To prevent oxidation of GSH to GSSG during processing, samples were deproteinized using the supplied metaphosphoric acid solution and neutralized accordingly. Total glutathione and GSSG levels were measured separately by adding the appropriate buffers and reagents to the wells of a 96-well plate, followed by the addition of DTNB recycling reagent and glutathione reductase. Absorbance was read at 405 nm using a microplate reader (BMG Labtech, Germany). The amount of GSH was calculated by subtracting 2 × GSSG from the total glutathione, and the GSH/GSSG ratio was used to assess intracellular redox status.

Experiment [3] deals with A549, MCF-7, and HeLa cells. The experiment is described as follows: MTT cell viability assay, ranges stated across the cancer cell lines. The format is cell-based. The following applies: Homo sapiens, range over the three cancer cell lines, 48 h. As to the method: Cell viability assay was performed on the human lung cancer (A549) (ATCC CCL-185), human breast cancer (MCF-7) (ATCC-HTB-22), cervical cancer (HeLa) (ATCC-CCL-2), and human embryonic kidney 293 (HEK293) (ATCC-CRL-1573) cell lines, which were purchased from Deutsche Sammlung von Mikroorganismen und Zellkulturen (DSMZ, Braunschweig, Germany). The cells were maintained in Dulbecco’s modified Eagle’s medium (DMEM), supplemented with 10% fetal bovine serum (FBS), 2 mM L-glutamine, 100 U/mL penicillin, and 100 mg/L streptomycin (Biochrom AG, Berlin, Germany) at 37 °C in a humidified atmosphere of 5% CO2.
The cytotoxic effect was determined by the MTT (3-(4,5-dimethyl-2-thiazolyl)-2,5-diphenyl-2H-tetrazolium bromide) cell viability assay. Cells were seeded at an initial concentration of 1 × 10^5 cells/mL in 96-well microplates. […] After the incubation period, the formed formazan crystals were dissolved in dimethyl sulfoxide (DMSO), and the optical density (OD) of the compounds was measured at 570 nm using a spectrophotometer (BMG Labtech, Ortenberg, Germany). Cytotoxicity was expressed as an increase in the mean percentage of cytotoxicity relative to the unexposed control ± standard deviation (SD). […] IC50 was calculated by fitting the data to a sigmoidal curve using a four-parameter logistic model and was presented as an average of three independent measurements. […]

Experiment [4] has as its system MCF-7 cells. The experiment is described as follows: LDH leakage assay, MCF-7. The format is cell-based, human. Conditions: MCF-7, IC50 concentration of compound, 48 h; H2O2 positive control; mean ± SD, n = 3. As for the experimental part: (§4) One hundred microliters of culture medium was transferred to a new 96-well plate. One hundred microliters of LDH reaction solution was added to each well, and absorbance was measured at 490 nm using an ELISA plate reader (BMG Labtech, Ortenberg, Germany) after 30 min.
(In general: Release of lactate dehydrogenase indicates damage to the cell membrane.)

For experiment [5], the system named is HeLa cells. The experiment is described as follows: Total oxidative status (TOS), HeLa. Type of experiment: cell-based, human. The following applies: IC50 concentration of compound, 48 h, H2O2 250 µM positive control, mean ± SD, n = 3.
The subject of experiment [6] is A549 cells. The experiment is described as follows: Cell cycle analysis (PI staining, flow cytometry), A549. The format is cell-based, human. The following applies: A549, IC50 concentration, 48 h, mean ± SEM, n = 3. As for the experimental part:
(§5) Cell cycle distribution was assessed by propidium iodide (PI) staining and flow cytometry. HeLa, MCF-7, and A549 cells were seeded in 6-well plates at a density of 1 × 10^5 cells per well and allowed to attach overnight. […] Following exposure, both adherent and floating cells were collected, washed twice with cold phosphate-buffered saline (PBS, pH 7.4), and fixed overnight in 70% cold ethanol at 4 °C. After fixation, the cells were centrifuged and resuspended in 500 µL of PI/RNase staining solution containing 50 µg/mL PI and 100 µg/mL RNase A (Sigma-Aldrich®, St. Louis, MO, USA), followed by incubation in the dark for 30 min at 37 °C. The stained samples were analyzed using a Muse™ Cell Analyzer (Merck, Millipore, Germany) equipped with a 488 nm excitation laser and a 617 nm emission filter. A minimum of 10,000 events per sample were acquired after exclusion of debris and doublets via FSC-A vs. FSC-H gating. The DNA content histograms were generated automatically, and cell populations were expressed as percentages of G0/G1, S, and G2/M phases using the Muse™ Cell Cycle Analysis Software 1.5.0.0. All assays were conducted in triplicate biological repeats (n = 3), and results were reported as mean ± SEM.

Experiment [7] relates to HeLa cells. The experiment is described as follows: LDH leakage assay, HeLa. The following applies: IC50 concentration of compound, 48 h, H2O2 positive control, mean ± SD, n = 3. Type of experiment: cell-based, human. As for the experimental part:
as §4

Experiment [8] relates to MCF-7 cells. The experiment is described as follows: Intracellular GSH/GSSG ratio, MCF-7. The format is cell-based, human. Conditions: MCF-7, IC50 concentration of compound, 48 h; H2O2 positive control; mean ± SD, n = 3. As for the experimental part:
as §2, §3

In experiment [9] the test system is HeLa cells. The experiment is described as follows: Cell cycle analysis (PI staining, flow cytometry), HeLa. Type of experiment: cell-based, human. The following applies: IC50 concentration, 48 h, mean ± SEM, n = 3. As for the experimental part:
as §5
(Flow cytometry measures light scatter and fluorescence of single cells or particles in a stream.)

The test system of experiment [10] is A549 cells. The experiment is described as follows: MTT cell viability assay, A549. The format is cell-based, human. In outline:
as §1
On the technique in general: Formazan colour is commonly taken as a measure of viable cells.

On to `O=C(O)Cn1c(=O)n(CC(=O)O)c2cc(Cl)c(Cl)cc21` [Compound 6, 2,2′-(5,6-Dichloro-2-oxo-1H-benzo[d]imidazole-1,3(2H)-diyl)diacetic Acid], for which the IC50 was 28.3 ± 1.63 µM in experiment [1] (Homo sapiens, MCF7, MTT, 48 h, mean ± SD, n = 3); 28.3 to 31.2 µM in experiment [3]; 30.6 ± 1.76 µM in experiment [10] (Homo sapiens, A549, MTT, 48 h, mean ± SD, n = 3). In [1] (SI = IC50 (HEK 293)/IC50 (MCF-7)), the “MCF-7 Selectivity Index (SI)” value was determined as 2.21. Besides, the GSH/GSSG in experiment [2] is 11.2 ± 1.0 nmol/mg Protein and 11.2 ± 1.0 ^a,b nmol/mg Protein; in experiment [8] it was 12.1 ± 1.2 nmol/mg Protein and 12.1 ± 1.2 ^a,b nmol/mg Protein. Also, the LDH in [4] is 22.7 ± 1.8 µU/mL and 22.7 ± 1.8 ^a,b µU/mL; in experiment [7] it was 27.3 ± 2.5 µU/mL and 27.3 ± 2.5 ^a,b µU/mL. Besides, the TOS in experiment [5] is 7.8 ± 0.6 µmol H2O2 eq/L and 7.8 ± 0.6 ^a,b µmol H2O2 eq/L. Moreover, the “cells in G0/G1 phase” value was 59.8 ± 2.0% in [6] and 42.3 ± 2.3% in experiment [9]. In addition, the “cells in G2/M phase” value was determined as 19.6 ± 1.4% in experiment [6] and 32.9 ± 1.6% in [9]. The figures for the “cells in S phase” value in experiment [6] and in experiment [9] were 20.6 ± 1.5% and 24.8 ± 1.5%, respectively. The “A549 Selectivity Index (SI)” value in [10] (SI = IC50 (HEK 293)/IC50 (A549)) was determined as 2.04.
